Experimental data reported in the supplement of paper PMC10307832.

Key:
Experiment in all cases: relative viability (nuclei count vs DMSO), 5 days (fraction); higher = more cells survive
[1] = compound: C=CCc1cccc(/C=N/NC(=O)CN2CCN(Cc3ccccc3)CC2)c1O [PAC-1] + N=C(N)NC(=N)NCCc1ccccc1 [Phenformin] (partner 250 µM)
How it was run: (§1)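 The day after seeding in 1536-well plates, lung cancer cell lines were treated by pin tool with a single drug, or with a fixed anchor-drug dose together with five library-drug doses (not always all listed) in √10 steps. After 5 days, a combined fix-and-stain solution (final 0.05% Triton X-100, 1% formaldehyde, 1 ug/ml Hoechst) was added. Nuclei counted on 4× images gave relative viability as treated counts over vehicle counts, reported as the median of duplicate plates.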

[2] = compound: C=CCc1cccc(/C=N/NC(=O)CN2CCN(Cc3ccccc3)CC2)c1O [PAC-1] + CCNC(=O)c1noc(-c2cc(C(C)C)c(O)cc2O)c1-c1ccc(CN2CCOCC2)cc1 [Luminespib] (partner 0.01 µM)
How it was run: as §1

[3] = compound: C=CCc1cccc(/C=N/NC(=O)CN2CCN(Cc3ccccc3)CC2)c1O [PAC-1] + C[C@@H](Oc1cc(-c2cnn(C3CCNCC3)c2)cnc1N)c1c(Cl)ccc(F)c1Cl [Crizotinib] (partner 1 µM)
How it was run: as §1

[4] = compound: C=CC(=O)Nc1cc(-n2c(=O)ccc3cnc4ccc(-c5ccc(NS(C)(=O)=O)cc5)cc4c32)ccc1C [BMX-IN-1] + CCNC(=O)c1noc(-c2cc(C(C)C)c(O)cc2O)c1-c1ccc(CN2CCOCC2)cc1 [Luminespib] (partner 0.01 µM)
How it was run: as §1

[5] = compound: C=CCc1cccc(/C=N/NC(=O)CN2CCN(Cc3ccccc3)CC2)c1O [PAC-1] + CC(=O)Nc1cccc(-n2c(=O)n(C3CC3)c(=O)c3c(Nc4ccc(I)cc4F)n(C)c(=O)c(C)c32)c1 [Trametinib] (partner 0.02 µM)
How it was run: as §1

Row | Cell Line | relative viability ([1]; first compound 0.02 µM) | relative viability ([1]; first compound 0.06325 µM) | relative viability ([1]; first compound 0.2 µM) | relative viability ([1]; first compound 2 µM) | relative viability ([2]; first compound 0.02 µM) | relative viability ([2]; first compound 0.06325 µM) | relative viability ([2]; first compound 0.2 µM) | relative viability ([2]; first compound 2 µM) | relative viability ([3]; first compound 0.02 µM) | relative viability ([3]; first compound 0.06325 µM) | relative viability ([3]; first compound 0.2 µM) | relative viability ([3]; first compound 2 µM) | relative viability ([4]; first compound 0.02 µM) | relative viability ([4]; first compound 0.2 µM) | relative viability ([4]; first compound 0.6325 µM) | relative viability ([4]; first compound 2 µM) | relative viability ([5]; first compound 0.02 µM) | relative viability ([5]; first compound 0.06325 µM) | relative viability ([5]; first compound 0.2 µM) | relative viability ([5]; first compound 2 µM)
1 | NCI-H2085 | 0.747 | 0.757 | 0.723 | 0.815 | 0.42 | 0.496 | 0.43 | 0.484 | 0.742 | 0.899 | 0.789 | 0.947 | 0.404 | 0.389 | 0.401 | 0.406 | 0.452 | 0.521 | 0.458 | 0.629
2 | HCC-78 | 0.8 | 0.639 | 0.809 | 0.759 | – | – | – | – | 0.343 | 0.34 | 0.362 | 0.337 | – | – | – | – | 0.725 | 0.725 | 0.849 | 0.782
3 | NCI-H647 | 0.609 | 0.504 | 0.431 | 0.571 | 0.103 | 0.123 | 0.286 | 0.16 | 1.06 | 1.12 | 1.03 | 0.812 | 0.242 | 0.294 | 0.179 | 0.379 | 0.456 | 0.535 | 0.446 | 0.399
4 | NCI-H1299 | – | – | – | – | – | – | – | – | 0.936 | 0.94 | 0.937 | 0.891 | – | – | – | – | – | – | – | –
5 | LU99A | 0.824 | 0.761 | 0.908 | 0.874 | 0.304 | 0.229 | 0.266 | 0.217 | 0.618 | 0.581 | 0.515 | 0.544 | 0.216 | 0.181 | 0.227 | 0.258 | 0.542 | 0.475 | 0.539 | 0.564
6 | A549 | 0.22 | 0.167 | 0.139 | 0.171 | – | – | – | – | 0.747 | 0.793 | 0.706 | 0.77 | – | – | – | – | – | – | – | –
7 | HARA | 0.438 | 0.476 | 0.446 | 0.507 | 0.554 | 0.674 | 0.793 | 0.937 | 0.955 | 1.03 | 1.01 | 1.06 | 1.01 | 0.207 | 0.683 | 0.682 | 0.632 | 0.697 | 0.621 | 0.473
8 | NCI-H1944 | 0.198 | 0.198 | 0.19 | 0.189 | 0.766 | 0.685 | 0.765 | 0.701 | 1.06 | 1.16 | 1.02 | 1.14 | 0.812 | 0.729 | 0.728 | 0.706 | 0.414 | 0.393 | 0.433 | 0.444
9 | LCLC-103H | 0.347 | 0.322 | 0.365 | 0.341 | 1.06 | 0.932 | 0.981 | 0.911 | 1.07 | 1.15 | 0.974 | 1.02 | 1.1 | 0.933 | 0.956 | 0.882 | 0.636 | 0.697 | 0.708 | 0.714
10 | NCI-H1792 | 0.298 | 0.257 | 0.293 | 0.24 | 0.355 | 0.484 | 0.47 | 0.416 | 0.988 | 1.04 | 1.03 | 0.909 | 0.428 | 0.31 | 0.427 | 0.46 | 0.475 | 0.402 | 0.392 | 0.468
11 | Calu-6 | – | – | – | – | – | – | – | – | 0.728 | 0.823 | 0.8 | 0.867 | – | – | – | – | – | – | – | –
12 | SW 900 | 0.43 | 0.575 | 0.568 | 0.415 | 0.173 | 0.157 | 0.16 | 0.214 | – | – | – | – | 0.172 | 0.182 | 0.165 | 0.179 | – | 0.8 | 0.686 | 0.817
13 | LOU-NH91 | 0.713 | 0.695 | 0.668 | 0.798 | 0.312 | 0.271 | 0.352 | 0.322 | 0.747 | 0.762 | 0.723 | 0.728 | 0.3 | – | 0.363 | 0.315 | 0.776 | 0.776 | 0.782 | 0.817
14 | HCC-366 | 0.612 | 0.634 | 0.595 | 0.655 | – | – | – | – | 0.542 | 0.479 | 0.454 | 0.591 | – | – | – | – | 0.339 | 0.318 | 0.312 | 0.365
15 | CAL-12T | 0.6 | 0.657 | 0.542 | 0.571 | 0.268 | 0.517 | 0.381 | 0.247 | 0.72 | 0.828 | 0.551 | 0.578 | 0.578 | 0.483 | 0.392 | 0.712 | 0.329 | 0.359 | 0.353 | 0.386
16 | NCI-H1355 | 0.461 | 0.517 | 0.431 | 0.438 | 0.762 | 0.668 | 0.797 | 0.778 | 1.08 | 1.08 | 1.17 | 1.03 | 0.75 | 0.724 | 0.699 | 0.711 | 0.464 | 0.467 | 0.416 | 0.419
17 | ABC-1 | 0.217 | 0.231 | 0.24 | 0.21 | 0.526 | 0.803 | 0.682 | 0.519 | 1.09 | 1.16 | 1.11 | 1.34 | 0.586 | 0.571 | 0.359 | 0.322 | – | – | – | –
18 | NCI-H2405 | 0.398 | 0.403 | 0.391 | 0.361 | 0.611 | 0.652 | 0.656 | 0.789 | 0.862 | 0.829 | 0.818 | 0.862 | 0.747 | 0.754 | 0.669 | 0.674 | 0.684 | 0.688 | 0.667 | 0.73
19 | NCI-H1648 | – | – | – | – | – | – | – | – | – | – | – | – | – | – | – | – | 0.388 | 0.525 | 0.445 | 0.504
20 | NCI-H650 | 0.469 | 0.452 | 0.403 | 0.444 | 0.701 | 0.929 | 0.882 | 0.748 | 0.591 | 0.653 | 0.825 | 0.72 | 0.789 | 0.831 | 0.914 | 0.773 | 0.871 | 1.02 | 0.933 | 1.27
